Here are results for 25 compounds from US7262185B2, “Benzazepine derivative, process for producing the same, and use” (Takeda Chemical Industries Ltd., priority 2001, dated 2007).

In the case of `CCCCOCCOc1ccc(-c2ccc3c(c2)C=C(C(=O)Nc2ccc([C@H](O)c4cccc[n+]4[O-])cc2)CCN3Cc2ccnn2C)cc1` [Compound 89, 7-[4-(2-butoxyethoxy)phenyl]-N-[4-[(S)-hydroxy(1-oxidopyridin-2-yl)methyl]phenyl]-1-(1-methylpyrazol-5-ylmethyl)-2,3-dihydro-1H-1-benzazepine-4-carboxamide], the melting point (in general, the temperature of the solid-liquid transition) lay within 109 to 111 °C.
The figure for `CCCCOCCOc1ccc(-c2ccc3c(c2)C=C(C(=O)Nc2ccc([S+]([O-])Cc4nncn4C)cc2)CCN3CC(C)C)cc1` (stereo not shown) [Compound 131, 7-[4-(2-butoxyethoxy)phenyl]-N-[4-(4-methyl-4H-1,2,4-triazol-3-ylmethylsulfinyl)phenyl]-1-isobutyl-2,3-dihydro-1H-1-benzazepine-4-carboxamide] is 103 to 105 °C; for `CCCCOCCOc1ccc(-c2ccc3c(c2)C=C(C(=O)Nc2ccc(C(O)c4cc(C)cc[n+]4[O-])c(C(F)(F)F)c2)CCN3CCC)cc1` (stereo not shown) [Compound 17, 7-[4-(2-butoxyethoxy)phenyl]-N-[4-[hydroxy(4-methyl-1-oxidopyridin-2-yl)methyl]-3-trifluoromethylphenyl]-1-propyl-2,3-dihydro-1H-1-benzazepine-4-carboxamide] it is 103 to 105 °C; for `CCCCOCCOc1ccc(-c2ccc3c(c2)C=C(C(=O)Nc2ccc(SCc4n[nH]c(=O)n4CCC)cc2)CCN3CC(C)C)cc1` [Compound 65, 7-[4-(2-butoxyethoxy)phenyl]-1-isobutyl-N-[4-[(4-propyl-1H-1,2,4-triazol-5-on-3-yl)methylthio]phenyl]-2,3-dihydro-1H-1-benzazepine-4-carboxamide] it is 98 to 101 °C.
The figure for `CCCCOCCOc1ccc(-c2ccc3c(c2)C=C(C(=O)Nc2ccc(SCCn4cnnc4)cc2)CCN3CCC)cc1` [Compound 156, 7-[4-(2-butoxyethoxy)phenyl]-N-[4-(4H-1,2,4-triazol-4-ylethylthio)phenyl]-1-propyl-2,3-dihydro-1H-benzazepine-4-carboxamide] is 114 to 115 °C; for `CCCCOCCOc1ccc(-c2ccc3c(c2)C=C(C(=O)Nc2ccc(C(O)c4c(C)ccc[n+]4[O-])cc2)CCN3C(=O)C(F)(F)F)cc1` (stereo not shown) [Compound 100, 7-[4-(2-butoxyethoxy)phenyl]-N-[4-[hydroxy(3-methyl-1-oxidopyridin-2-yl)methyl]phenyl]-1-trifluoroacetyl-2,3-dihydro-1H-1-benzazepine-4-carboxamide] it is 109 to 112 °C.
`CCCCOCCOc1ccc(-c2ccc3c(c2)C=C(C(=O)Nc2ccc(Sc4cccc5nc(C)cn45)cc2)CCN3CC(C)C)cc1` [Compound 170, 7-[4-(2-butoxyethoxy)phenyl]-1-isobutyl-N-[4-(2-methylimidazo[1,2-a]pyridin-5-ylthio)phenyl]-2,3-dihydro-1H-benzazepine-4-carboxamide] had a melting point of 164 to 166 °C.
For the compound `CCCCOCCOc1ccc(-c2ccc3c(c2)C=C(C(=O)Nc2ccc([C@H](O)c4cccc[n+]4[O-])cc2)CCN3Cc2cc(C)ns2)cc1` [Compound 92, 7-[4-(2-butoxyethoxy)phenyl]-1-(3-methyl-isothiazol-5-ylmethyl)-N-[4-[(S)-hydroxy(1-oxidopyridin-2-yl)methyl]phenyl]-2,3-dihydro-1H-1-benzazepine-4-carboxamide], the melting point is 93 to 96 °C.
On to `CCCCOCCOc1ccc(-c2ccc3c(c2)C=C(C(=O)Nc2ccc([S+]([O-])Cc4c(C)nc5ccccn45)cc2)CCN3CCC)cc1` (stereo not shown) [Compound 165, 7-[4-(2-butoxyethoxy)phenyl]-N-[4-(2-methylimidazo[1,2-a]pyridin-3-ylmethylsulfinyl)phenyl]-1-propyl-2,3-dihydro-1H-benzazepine-4-carboxamide], for which the melting point fell in the range of 134 to 137 °C.
As for `CCCCOCCOc1ccc(-c2ccc3c(c2)C=C(C(=O)Nc2ccc([C@H](O)c4ccccn4)cc2)CCN3C(=O)C(F)(F)F)cc1` [Compound 79, 7-[4-(2-butoxyethoxy)phenyl]-N-[4-[(S)-hydroxy(2-pyridyl)methyl]phenyl]-1-trifluoroacetyl-2,3-dihydro-1H-1-benzazepine-4-carboxamide], the melting point was 100 to 102 °C.
The figure for `CCCCOCCOc1ccc(-c2ccc3c(c2)C=C(C(=O)Nc2ccc(C(O)c4cccc[n+]4[O-])c(Cl)c2)CCN3CC(C)C)cc1` (stereo not shown) [Compound 6, 7-[4-(2-butoxyethoxy)phenyl]-N-[3-chloro-4-[hydroxy(1-oxidopyridin-2-yl)methyl]phenyl]-1-isobutyl-2,3-dihydro-1H-1-benzazepine-4-carboxamide] is 105 to 107 °C; for `CCCCOCCOc1ccc(-c2ccc3c(c2)C=C(C(=O)Nc2ccc(C(O)c4ccc(C)cn4)cc2)CCN3C(=O)C(F)(F)F)cc1` (stereo not shown) [Compound 103, 7-[4-(2-butoxyethoxy)phenyl]-N-[4-[hydroxy(5-methylpyridin-2-yl)methyl]phenyl]-1-trifluoroacetyl-2,3-dihydro-1H-1-benzazepine-4-carboxamide] it is 110 to 113 °C.
Then `CCCCOCCOc1ccc(-c2ccc3c(c2)C=C(C(=O)Nc2ccc([C@H](O)c4ccccn4)cc2)CCN3S(C)(=O)=O)cc1` [Compound 93, 7-[4-(2-butoxyethoxy)phenyl]-N-[4-[(S)-hydroxy(2-pyridyl)methyl]phenyl]-1-methanesulfonyl-2,3-dihydro-1H-1-benzazepine-4-carboxamide], with 158 to 160 °C; and `CCCCOCCOc1ccc(-c2ccc3c(c2)C=C(C(=O)Nc2ccc(CC(=O)c4nccn4CCC)cc2)CCN3CC(C)C)cc1` [Compound 451, 7-[4-(2-butoxyethoxy)phenyl]-1-isobutyl-N-[4-(2-oxo-2-(1-propylimidazol-2-yl)ethyl)phenyl]-2,3-dihydro-1H-1-benzazepine-4-carboxamide], with 136.5 to 138 °C; and `CCCCOCCOc1ccc(-c2ccc3c(c2)C=C(C(=O)Nc2ccc(OCc4nccn4CCC)cc2)CCN3CC(C)C)cc1` [Compound 25, 7-[4-(2-butoxyethoxy)phenyl]-1-isobutyl-N-[4-[(1-propylimidazole-2-yl)methoxy]phenyl]-2,3-dihydro-1H-1-benzazepine-4-carboxamide], with 118 to 120 °C.
The figure for `CCCCOCCOc1ccc(-c2ccc3c(c2)C=C(C(=O)Nc2ccc(N(C)Cc4nncn4CCC)cc2)CCN3CCC)cc1` [Compound 151, 7-[4-(2-butoxyethoxy)phenyl]-N-[4-[methyl(4-propyl-4H-1,2,4-triazol-3-ylmethyl)amino]phenyl]-1-propyl-2,3-dihydro-1H-benzazepine-4-carboxamide] is 131 to 133 °C; for `CCCCOCCOc1ccc(-c2ccc3c(c2)C=C(C(=O)Nc2ccc(C(O)c4cc(C)cc[n+]4[O-])cc2)CCN3)cc1` (stereo not shown) [Compound 1, 7-[4-(2-butoxyethoxy)phenyl]-N-[4-[hydroxy(4-methyl-1-oxidopyridin-2-yl)methyl]phenyl]-2,3-dihydro-1H-1-benzazepine-4-carboxamide] it is 198 to 201 °C (dec.); for `CCCCOCCOc1ccc(-c2ccc3c(c2)C=C(C(=O)Nc2ccc(SCc4ncon4)cc2)CCN3CC(C)C)cc1` [Compound 128, 7-[4-(2-butoxyethoxy)phenyl]-1-isobutyl-N-[4-(1,2,4-oxadiazol-3-ylmethylthio)phenyl]-2,3-dihydro-1H-benzazepine-4-carboxamide] it is 112 to 115 °C.
In turn, `CCCCOCCOc1ccc(-c2ccc3c(c2)C=C(C(=O)Nc2ccc([S+]([O-])CCc4nncn4CCC)cc2)CCN3CCC)cc1` (stereo not shown) [Compound 52, 7-[4-(2-butoxyethoxy)phenyl]-1-propyl-N-[4-[2-(4-propyl-4H-1,2,4-triazol-3-yl)ethylsulfinyl]phenyl]-2,3-dihydro-1H-1-benzazepine-4-carboxamide] had a melting point of 93 to 101 °C.
Then `CCCCOCCOc1ccc(-c2ccc3c(c2)C=C(C(=O)Nc2ccc(C(O)c4cc(C)cc[n+]4[O-])c(C(F)(F)F)c2)CCN3)cc1` (stereo not shown) [Compound 16, 7-[4-(2-butoxyethoxy)phenyl]-N-[4-[hydroxy(4-methyl-1-oxidopyridin-2-yl)methyl]-3-trifluoromethylphenyl]-2,3-dihydro-1H-1-benzazepine-4-carboxamide], with 124 to 128 °C; and `CCCCOCCOc1ccc(-c2ccc3c(c2)C=C(C(=O)Nc2ccc(C(O)c4cc(C)cc[n+]4[O-])c(OC)c2)CCN3CC(C)C)cc1` (stereo not shown) [Compound 10, 7-[4-(2-butoxyethoxy)phenyl]-N-[4-[hydroxy(4-methyl-1-oxidopyridin-2-yl)methyl]-3-methoxyphenyl]-1-isobutyl-2,3-dihydro-1H-1-benzazepine-4-carboxamide], with 174 to 176 °C.
`CCCCOCCOc1ccc(-c2ccc3c(c2)C=C(C(=O)Nc2ccc4c(c2)nc([S+]([O-])Cc2cncn2CCC)n4C)CCN3CC(C)C)cc1` (stereo not shown) [Compound 445, 7-[4-(2-butoxyethoxy)phenyl]-1-isobutyl-N-[1-methyl-2-(((1-propylimidazol-5-yl)methyl)sulfinyl)benzimidazol-5-yl]-2,3-dihydro-1H-1-benzazepine-4-carboxamide] displayed a melting point of 149.5 to 151 °C.
`CCCCOCCOc1ccc(-c2ccc3c(c2)C=C(C(=O)Nc2ccc(SCc4nccn4CCCC(=O)OCC)cc2)CCN3CC(C)C)cc1` [Compound 413, ethyl 4-[2-[[[4-[[[7-[4-(2-butoxyethoxy)phenyl]-1-isobutyl-2,3-dihydro-1H-1-benzazepin-4-yl]carbonyl]amino]phenyl]thio]methyl]-1H-imidazol-1-yl]butanoate] gave a melting point of 103 to 104 °C.
Then `CCCCOCCOc1ccc(-c2ccc3c(c2)C=C(C(=O)Nc2ccc(C(O)c4ccc(Cl)c[n+]4[O-])cc2)CCN3C(=O)C(F)(F)F)cc1` (stereo not shown) [Compound 108, 7-[4-(2-butoxyethoxy)phenyl]-N-[4-[hydroxy(5-chloro-1-oxidopyridin-2-yl)methyl]phenyl]-1-trifluoroacetyl-2,3-dihydro-1H-1-benzazepine-4-carboxamide], with 200 to 203 °C; and `CCCCOCCOc1ccc(-c2ccc3c(c2)C=C(C(=O)Nc2ccc([S+]([O-])Cc4nccn4CCCC(=O)OCC)cc2)CCN3CC(C)C)cc1` (stereo not shown) [Compound 414, ethyl 4-[2-[[[4-[[[7-[4-(2-butoxyethoxy)phenyl]-1-isobutyl-2,3-dihydro-1H-1-benzazepine-4-yl]carbonyl]amino]phenyl]sulfinyl]methyl]-1H-imidazol-1-yl]butanoate], with 134 to 136 °C.
